This is an account of results in PubChem BioAssay AID1963837 (Molecular Pharmacology Branch, DTP, NCI, 2024).

A value given as a limit tells only on which side of the number the result lay.
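For viability, T/C in this document: spheroids exposed to drugs for seven days before readout.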

The first experiment has as its system 843126-344-R-J1-PDC complex spheroid viability. The experiment can be described thus: Anticancer human tumor 843126-344-R-J1-PDC patient-derived melanoma cell line growth inhibition [POLQ]. The following applies: curve of first compound; second compound 0.0316 µM. In outline:
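Three-cell-type spheroids modelling solid tumor plus stroma served as the readout system; POL inhibitors were tested individually and in combination, concentration ranges set by clinical Cmax where known.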
As for `C=CC(=O)N1CCN(c2nc(=O)n(-c3c(C)ccnc3C(C)C)c3nc(-c4c(O)cccc4F)c(F)cc23)C(C)C1` (configuration not stated) + Cc1cccc(N(C)C(=O)C2C(O)CCN2c2nc(C)cc(C(F)(F)F)c2C#N)c1, the IC50 (commonly the midpoint of a concentration-inhibition curve) is greater than 10 µM.

In the case of `CCc1cc2c(N3CCc4c(cc(Cn5ccnc5)cc4-c4cn(C)nc4C(F)(F)F)C3=O)cc(C)nc2c(OC)n1` + Cc1cccc(N(C)C(=O)C2C(O)CCN2c2nc(C)cc(C(F)(F)F)c2C#N)c1, the IC50 was greater than 10 µM.

For `CCc1cc2c(N3CCc4c(cc(Cn5ccnc5)cc4-c4cn(C)nc4C(F)(F)F)C3=O)ccnc2c(OC)n1` + Cc1cccc(N(C)C(=O)C2C(O)CCN2c2nc(C)cc(C(F)(F)F)c2C#N)c1, the IC50 is greater than 10 µM.

Consider `COc1cc2cc(C(=O)CCC(=O)O)sc2cc1OC` + Cc1cccc(N(C)C(=O)C2C(O)CCN2c2nc(C)cc(C(F)(F)F)c2C#N)c1, for which the IC50 was greater than 10 µM.

Still in this experiment, the particulars now being: curve of first compound; second compound 0.1 µM.
Turning to `C=CC(=O)N1CCN(c2nc(=O)n(-c3c(C)ccnc3C(C)C)c3nc(-c4c(O)cccc4F)c(F)cc23)C(C)C1` (configuration not stated) + Cc1cccc(N(C)C(=O)C2C(O)CCN2c2nc(C)cc(C(F)(F)F)c2C#N)c1, the IC50 was greater than 10 µM.

Consider `CCc1cc2c(N3CCc4c(cc(Cn5ccnc5)cc4-c4cn(C)nc4C(F)(F)F)C3=O)cc(C)nc2c(OC)n1` + Cc1cccc(N(C)C(=O)C2C(O)CCN2c2nc(C)cc(C(F)(F)F)c2C#N)c1, for which the half-inhibitory concentration (IC50) is greater than 10 µM.

Turning to `CCc1cc2c(N3CCc4c(cc(Cn5ccnc5)cc4-c4cn(C)nc4C(F)(F)F)C3=O)ccnc2c(OC)n1` + Cc1cccc(N(C)C(=O)C2C(O)CCN2c2nc(C)cc(C(F)(F)F)c2C#N)c1, the IC50 is greater than 10 µM.

In the case of `COc1cc2cc(C(=O)CCC(=O)O)sc2cc1OC` + Cc1cccc(N(C)C(=O)C2C(O)CCN2c2nc(C)cc(C(F)(F)F)c2C#N)c1, the IC50 was greater than 10 µM.

Staying with this experiment, now noted: curve of first compound; second compound 0.316 µM.
As for `C=CC(=O)N1CCN(c2nc(=O)n(-c3c(C)ccnc3C(C)C)c3nc(-c4c(O)cccc4F)c(F)cc23)C(C)C1` (configuration not stated) + Cc1cccc(N(C)C(=O)C2C(O)CCN2c2nc(C)cc(C(F)(F)F)c2C#N)c1, the IC50 is greater than 10 µM.

With `CCc1cc2c(N3CCc4c(cc(Cn5ccnc5)cc4-c4cn(C)nc4C(F)(F)F)C3=O)cc(C)nc2c(OC)n1` + Cc1cccc(N(C)C(=O)C2C(O)CCN2c2nc(C)cc(C(F)(F)F)c2C#N)c1, the IC50 was greater than 10 µM.

`CCc1cc2c(N3CCc4c(cc(Cn5ccnc5)cc4-c4cn(C)nc4C(F)(F)F)C3=O)ccnc2c(OC)n1` + Cc1cccc(N(C)C(=O)C2C(O)CCN2c2nc(C)cc(C(F)(F)F)c2C#N)c1: the IC50 was greater than 10 µM.

In the case of `COc1cc2cc(C(=O)CCC(=O)O)sc2cc1OC` + Cc1cccc(N(C)C(=O)C2C(O)CCN2c2nc(C)cc(C(F)(F)F)c2C#N)c1, the IC50 is greater than 10 µM.

Still in this experiment, the particulars now being: curve of first compound; second compound 1 µM.
`C=CC(=O)N1CCN(c2nc(=O)n(-c3c(C)ccnc3C(C)C)c3nc(-c4c(O)cccc4F)c(F)cc23)C(C)C1` (configuration not stated) + Cc1cccc(N(C)C(=O)C2C(O)CCN2c2nc(C)cc(C(F)(F)F)c2C#N)c1: the IC50 was greater than 10 µM.

In the case of `CCc1cc2c(N3CCc4c(cc(Cn5ccnc5)cc4-c4cn(C)nc4C(F)(F)F)C3=O)cc(C)nc2c(OC)n1` + Cc1cccc(N(C)C(=O)C2C(O)CCN2c2nc(C)cc(C(F)(F)F)c2C#N)c1, the IC50 is greater than 10 µM.

In the case of `CCc1cc2c(N3CCc4c(cc(Cn5ccnc5)cc4-c4cn(C)nc4C(F)(F)F)C3=O)ccnc2c(OC)n1` + Cc1cccc(N(C)C(=O)C2C(O)CCN2c2nc(C)cc(C(F)(F)F)c2C#N)c1, the half-maximal inhibitory concentration (IC50) is greater than 10 µM.

As to `COc1cc2cc(C(=O)CCC(=O)O)sc2cc1OC` + Cc1cccc(N(C)C(=O)C2C(O)CCN2c2nc(C)cc(C(F)(F)F)c2C#N)c1, the IC50 was greater than 10 µM.

Staying with this experiment, now noted: curve of first compound; second compound 3.16 µM.
For `C=CC(=O)N1CCN(c2nc(=O)n(-c3c(C)ccnc3C(C)C)c3nc(-c4c(O)cccc4F)c(F)cc23)C(C)C1` (configuration not stated) + Cc1cccc(N(C)C(=O)C2C(O)CCN2c2nc(C)cc(C(F)(F)F)c2C#N)c1, the IC50 is greater than 10 µM.

As for `CCc1cc2c(N3CCc4c(cc(Cn5ccnc5)cc4-c4cn(C)nc4C(F)(F)F)C3=O)cc(C)nc2c(OC)n1` + Cc1cccc(N(C)C(=O)C2C(O)CCN2c2nc(C)cc(C(F)(F)F)c2C#N)c1, the 50% inhibitory concentration (IC50) is greater than 10 µM.

For the compound `CCc1cc2c(N3CCc4c(cc(Cn5ccnc5)cc4-c4cn(C)nc4C(F)(F)F)C3=O)ccnc2c(OC)n1` + Cc1cccc(N(C)C(=O)C2C(O)CCN2c2nc(C)cc(C(F)(F)F)c2C#N)c1, the IC50 was greater than 10 µM.

For `COc1cc2cc(C(=O)CCC(=O)O)sc2cc1OC` + Cc1cccc(N(C)C(=O)C2C(O)CCN2c2nc(C)cc(C(F)(F)F)c2C#N)c1, the half-inhibitory concentration (IC50) was greater than 10 µM.

The experiment is the same for the next values; noted with them: curve of first compound; second compound 10 µM.
As to `C=CC(=O)N1CCN(c2nc(=O)n(-c3c(C)ccnc3C(C)C)c3nc(-c4c(O)cccc4F)c(F)cc23)C(C)C1` (configuration not stated) + Cc1cccc(N(C)C(=O)C2C(O)CCN2c2nc(C)cc(C(F)(F)F)c2C#N)c1, the concentration for half-maximal inhibition (IC50) is greater than 10 µM.

Take `CCc1cc2c(N3CCc4c(cc(Cn5ccnc5)cc4-c4cn(C)nc4C(F)(F)F)C3=O)cc(C)nc2c(OC)n1` + Cc1cccc(N(C)C(=O)C2C(O)CCN2c2nc(C)cc(C(F)(F)F)c2C#N)c1: the IC50 was greater than 10 µM.

Regarding `CCc1cc2c(N3CCc4c(cc(Cn5ccnc5)cc4-c4cn(C)nc4C(F)(F)F)C3=O)ccnc2c(OC)n1` + Cc1cccc(N(C)C(=O)C2C(O)CCN2c2nc(C)cc(C(F)(F)F)c2C#N)c1, the IC50 is greater than 10 µM.

Consider `COc1cc2cc(C(=O)CCC(=O)O)sc2cc1OC` + Cc1cccc(N(C)C(=O)C2C(O)CCN2c2nc(C)cc(C(F)(F)F)c2C#N)c1, for which the IC50 was greater than 10 µM.

The experiment is the same for the next values; noted with them: second compound 0.0316 µM; first compound 0.0316 µM; stronger effect = lower value.
Turning to `C=CC(=O)N1CCN(c2nc(=O)n(-c3c(C)ccnc3C(C)C)c3nc(-c4c(O)cccc4F)c(F)cc23)C(C)C1` (configuration not stated) + Cc1cccc(N(C)C(=O)C2C(O)CCN2c2nc(C)cc(C(F)(F)F)c2C#N)c1, the viability, T/C (as a rule, the ratio of treated to control) was 87.6%.

`CCc1cc2c(N3CCc4c(cc(Cn5ccnc5)cc4-c4cn(C)nc4C(F)(F)F)C3=O)cc(C)nc2c(OC)n1` + Cc1cccc(N(C)C(=O)C2C(O)CCN2c2nc(C)cc(C(F)(F)F)c2C#N)c1: the viability, T/C was 90.8%.

Consider `CCc1cc2c(N3CCc4c(cc(Cn5ccnc5)cc4-c4cn(C)nc4C(F)(F)F)C3=O)ccnc2c(OC)n1` + Cc1cccc(N(C)C(=O)C2C(O)CCN2c2nc(C)cc(C(F)(F)F)c2C#N)c1, for which the viability, T/C was 91.3%.

For `COc1cc2cc(C(=O)CCC(=O)O)sc2cc1OC` + Cc1cccc(N(C)C(=O)C2C(O)CCN2c2nc(C)cc(C(F)(F)F)c2C#N)c1, the viability, T/C is 95.8%.

The same experiment, now with this note: second compound 0.0316 µM; first compound 0.1 µM; stronger effect = lower value.
Regarding `C=CC(=O)N1CCN(c2nc(=O)n(-c3c(C)ccnc3C(C)C)c3nc(-c4c(O)cccc4F)c(F)cc23)C(C)C1` (configuration not stated) + Cc1cccc(N(C)C(=O)C2C(O)CCN2c2nc(C)cc(C(F)(F)F)c2C#N)c1, the viability, T/C was 95.2%.

Regarding `CCc1cc2c(N3CCc4c(cc(Cn5ccnc5)cc4-c4cn(C)nc4C(F)(F)F)C3=O)cc(C)nc2c(OC)n1` + Cc1cccc(N(C)C(=O)C2C(O)CCN2c2nc(C)cc(C(F)(F)F)c2C#N)c1, the viability, T/C was 92.8%.

In the case of `CCc1cc2c(N3CCc4c(cc(Cn5ccnc5)cc4-c4cn(C)nc4C(F)(F)F)C3=O)ccnc2c(OC)n1` + Cc1cccc(N(C)C(=O)C2C(O)CCN2c2nc(C)cc(C(F)(F)F)c2C#N)c1, the viability, T/C was 79.8%.

In the case of `COc1cc2cc(C(=O)CCC(=O)O)sc2cc1OC` + Cc1cccc(N(C)C(=O)C2C(O)CCN2c2nc(C)cc(C(F)(F)F)c2C#N)c1, the viability, T/C was 83.5%.

Staying with this experiment, now noted: second compound 0.0316 µM; first compound 0.316 µM; stronger effect = lower value.
Take `C=CC(=O)N1CCN(c2nc(=O)n(-c3c(C)ccnc3C(C)C)c3nc(-c4c(O)cccc4F)c(F)cc23)C(C)C1` (configuration not stated) + Cc1cccc(N(C)C(=O)C2C(O)CCN2c2nc(C)cc(C(F)(F)F)c2C#N)c1: the viability, T/C was 122%.

In the case of `CCc1cc2c(N3CCc4c(cc(Cn5ccnc5)cc4-c4cn(C)nc4C(F)(F)F)C3=O)cc(C)nc2c(OC)n1` + Cc1cccc(N(C)C(=O)C2C(O)CCN2c2nc(C)cc(C(F)(F)F)c2C#N)c1, the viability, T/C is 80.9%.

For `CCc1cc2c(N3CCc4c(cc(Cn5ccnc5)cc4-c4cn(C)nc4C(F)(F)F)C3=O)ccnc2c(OC)n1` + Cc1cccc(N(C)C(=O)C2C(O)CCN2c2nc(C)cc(C(F)(F)F)c2C#N)c1, the viability, T/C was 80.6%.

With `COc1cc2cc(C(=O)CCC(=O)O)sc2cc1OC` + Cc1cccc(N(C)C(=O)C2C(O)CCN2c2nc(C)cc(C(F)(F)F)c2C#N)c1, the viability, T/C was 95.1%.

The same experiment, now with this note: second compound 0.0316 µM; first compound 1 µM; stronger effect = lower value.
On to `C=CC(=O)N1CCN(c2nc(=O)n(-c3c(C)ccnc3C(C)C)c3nc(-c4c(O)cccc4F)c(F)cc23)C(C)C1` (configuration not stated) + Cc1cccc(N(C)C(=O)C2C(O)CCN2c2nc(C)cc(C(F)(F)F)c2C#N)c1, for which the viability, T/C is 94.6%.

Take `CCc1cc2c(N3CCc4c(cc(Cn5ccnc5)cc4-c4cn(C)nc4C(F)(F)F)C3=O)cc(C)nc2c(OC)n1` + Cc1cccc(N(C)C(=O)C2C(O)CCN2c2nc(C)cc(C(F)(F)F)c2C#N)c1: the viability, T/C was 77.7%.

On to `CCc1cc2c(N3CCc4c(cc(Cn5ccnc5)cc4-c4cn(C)nc4C(F)(F)F)C3=O)ccnc2c(OC)n1` + Cc1cccc(N(C)C(=O)C2C(O)CCN2c2nc(C)cc(C(F)(F)F)c2C#N)c1, for which the viability, T/C is 83.3%.

Turning to `COc1cc2cc(C(=O)CCC(=O)O)sc2cc1OC` + Cc1cccc(N(C)C(=O)C2C(O)CCN2c2nc(C)cc(C(F)(F)F)c2C#N)c1, the viability, T/C was 98.8%.

Still in this experiment, the particulars now being: second compound 0.0316 µM; first compound 3.16 µM; stronger effect = lower value.
Turning to `C=CC(=O)N1CCN(c2nc(=O)n(-c3c(C)ccnc3C(C)C)c3nc(-c4c(O)cccc4F)c(F)cc23)C(C)C1` (configuration not stated) + Cc1cccc(N(C)C(=O)C2C(O)CCN2c2nc(C)cc(C(F)(F)F)c2C#N)c1, the viability, T/C is 89.6%.

As for `CCc1cc2c(N3CCc4c(cc(Cn5ccnc5)cc4-c4cn(C)nc4C(F)(F)F)C3=O)cc(C)nc2c(OC)n1` + Cc1cccc(N(C)C(=O)C2C(O)CCN2c2nc(C)cc(C(F)(F)F)c2C#N)c1, the viability, T/C was 72.4%.
